Measurements taken from paper PMC10467082, “Anti-Toxoplasma gondii Effects of Lipopeptide Derivatives of Lycosin-I” (Toxins, 2023).

Tests used:
T. gondii tachyzoites [1] = format: cell-based, Toxoplasma gondii
Method: The HFF cells were seeded in 6-well plates (1 × 10^6 cells per well) and incubated for 48–72 h. Cells in the 6-well plates were infected with 500 fresh tachyzoites per well for 2 h. The well in which cells were not infected with tachyzoites was considered the blank control group. Cells infected with tachyzoites were then treated with Lycosin-I (10 μM), L-C12 (10 μM), L-an (10 μM), SDZ (10 μM, positive control) and DMEM (negative control), respectively. After 7 days, HFFs in the plates were washed twice with PBS, fixed with methanol for 5 min, and then stained with crystal violet for 20 min. Six-well plates were washed with running water, dried, photographed, and then the number and area of plaques were counted using Photoshop version 2020. Three independent experiments were carried out.

RH strain of T. gondii = format: in vivo, mouse; conditions: mouse, in vivo, ip, 4 mg/kg/day
Method: To evaluate the anti-T. gondii effect of lipopeptides in vivo, we established a mouse model acutely infected with the RH strain of T. gondii. Forty 8-week-old female BALB/c mice weighing 17–19 g were randomly divided into 5 groups (n = 8 per group) and intraperitoneally injected with 1 × 10^3 tachyzoites per mouse. Lycosin-I, L-C12, L-an and sulfadiazine (SDZ) were dissolved in PBS, respectively. As these peptides are small linear peptides that are easily degraded by pepsin; mice were treated with these peptides via intraperitoneal injection (the same way that the mice were infected with T. gondii) rather than oral gavage. After 4 h of infection, mice were traperitoneally injected with 4 mg/kg of Lycosin-I, L-C12, L-an and sulfadiazine solution (once a day) for 7 days. Mice in the negative control group were treated with PBS. Mice in this condition observed daily and the time of death was recorded. The experiment was approved by the Ethics Committee of the School of Basic Medicine of Central South University (approval number: 2021-KT24).

T. gondii tachyzoites [2] = conditions: mouse, in vivo
Method: Therefore, the mice were treated with 4 mg/kg/day of SDZ or lipopetides for 7 days, and the survival time of the mice was closely monitored for 15 days. […] We also determined the parasite load in the peritoneal fluid and tissues of mice acutely infected with T. gondii after 5 days of treatment. The number of tachyzoites in the peritoneal fluid of the mice was directly counted using a blood cell counting plate (Figure 4B), while the expression of the surface antigen SAG1, a membrane surface protein specific to tachyzoites, was detected via qRT-PCR in the heart, liver, spleen, lung and brain of the mice (Figure 4C–G).
(§1) Total RNA was extracted from each sample using Total RNA Isolation Kit (ENOVA BIO Co., Ltd., Wuhan, China), in accordance with the manufacturer’s instructions. Reverse transcription of RNA into cDNA was performed using the PerfectStart Uni RT&qPCR Kit (TransGen Biotech Co., Ltd., Beijing, China) in accordance with the instructions. cDNA was used as a template for qRT-PCR using PerfectStart Uni RT&qPCR Kit (TransGen Biotech Co., Ltd., Beijing, China). Primers, listed in Table 2, were designed and synthesized by a biotechnology company (Sangon Biotech Co., Ltd., Shanghai, China). Analysis was performed using the comparative threshold cycle method (2^−∆∆Ct). The gene expression levels of genes were normalized to those of housekeeping genes (β-actin or GAPDH).

IFN-γ = format: in vivo, mouse; conditions: mouse, in vivo
Method: (§2) Once T. gondii has infected a host, a number of inflammatory responses can be induced in the host to resist T. gondii invasion and proliferation. Therefore, we wanted to investigate the expression levels of anti-inflammatory and pro-inflammatory factors in the mice treated with lipopeptides. The expression levels of IFN-γ, TNF-α, IL-4 and IL-10 in the spleen tissues of mice after 5 days of treatment were determined via qRT-PCR (Figure 5). […] Compared to the PBS group, all treatment groups promoted the upregulation of the pro-inflammatory cytokines IFN-γ and TNF-α and the anti-inflammatory cytokine IL-4.
as §1

IL-10 = format: in vivo, mouse; conditions: mouse, in vivo
Method: as §2, §1

IL-4 = format: in vivo, mouse; conditions: mouse, in vivo
Method: as §2, §1

TNF-α = format: in vivo, mouse; conditions: mouse, in vivo
Method: as §2, §1

Toxoplasma [3] = conditions: cited from earlier work
From the text: To evaluate the efficacy of the lipopeptides in vivo, we established a mouse model of acute T. gondii infection.

Toxoplasma [4] = conditions: mouse; cited from earlier work
From the text: We established a mouse model acutely infected with tachyzoites, recorded the survival time of the mice and determined the parasite load in the tissues of the mice. Lycosin-I and L-an can effectively prolong the survival time of mice.

SMILES: Nc1ccc(S(=O)(=O)Nc2ncccn2)cc1 [SDZ, Sulfadiazine]
- number and area of plaques in contrast with DMEM group (T. gondii tachyzoites [1]): significantly reduced
- plaques compared to DMEM group (T. gondii tachyzoites [1]): no obvious plaque
- survival time of mice compared to control group (RH strain of T. gondii): could not prolong the survival time
- parasite load in peritoneal fluid and tissues compared to PBS group (T. gondii tachyzoites [2]): effectively inhibit the proliferation of tachyzoites in mice
- expression of IFN-γ in spleen compared to PBS group (IFN-γ): promoted the expression
- expression of IL-10 in spleen compared to PBS group (IL-10): inhibited the upregulation of IL-10
- expression of IL-4 in spleen compared to PBS group (IL-4): promoted IL-4 expression
- expression of TNF-α in spleen compared to PBS group (TNF-α): promoted the expression
- anti-Toxoplasma effect in vitro (Toxoplasma [3]): anti-Toxoplasma effect was also observed
- anti-Toxoplasma effect in vivo (Toxoplasma [4]): anti-Toxoplasma effect was also observed
